# Reference: ChEMBL document CHEMBL4393680, “Design, synthesis and biological evaluation of novel thioquinazolinone-based 2-aminobenzamide derivatives as potent histone deacetylase (HDAC) inhibitors” (Eur J Med Chem, 2019)
# What was measured:
# HCT-116 [1] = assay: Antiproliferative activity against human HCT116 cells assessed as reduction in cell growth at 8 uM incubated for 72 hrs by CCK-8 assay relative to control; assay type: functional; details: HCT-116, 72 h
# SMMC-7721 [2] = assay: Antiproliferative activity against human SMMC7721 cells assessed as reduction in cell growth at 2 uM incubated for 72 hrs by CCK-8 assay relative to control; assay type: functional; details: SMMC-7721, 72 h
# A549 [3] = assay: Antiproliferative activity against human A549 cells assessed as reduction in cell growth at 8 uM incubated for 72 hrs by CCK-8 assay relative to control; assay type: functional; details: A549, 72 h
# HeLa [4] = assay: Antiproliferative activity against human HeLa cells assessed as reduction in cell growth at 2 uM incubated for 72 hrs by CCK-8 assay relative to control; assay type: functional
# A-375 [5] = assay: Antiproliferative activity against human A375 cells assessed as reduction in cell growth at 8 uM incubated for 72 hrs by CCK-8 assay relative to control; assay type: functional; details: A-375, 72 h
# A549 [6] = assay: Antiproliferative activity against human A549 cells assessed as reduction in cell growth at 2 uM incubated for 72 hrs by CCK-8 assay relative to control; assay type: functional; details: A549, 72 h
# HeLa [7] = assay: Antiproliferative activity against human HeLa cells assessed as reduction in cell growth at 8 uM incubated for 72 hrs by CCK-8 assay relative to control; assay type: functional
# SMMC-7721 [8] = assay: Antiproliferative activity against human SMMC7721 cells assessed as reduction in cell growth at 8 uM incubated for 72 hrs by CCK-8 assay relative to control; assay type: functional; details: SMMC-7721, 72 h
# A-375 [9] = assay: Antiproliferative activity against human A375 cells assessed as reduction in cell growth at 2 uM incubated for 72 hrs by CCK-8 assay relative to control; assay type: functional; details: A-375, 72 h
# HCT-116 [10] = assay: Antiproliferative activity against human HCT116 cells assessed as reduction in cell growth at 2 uM incubated for 72 hrs by CCK-8 assay relative to control; assay type: functional; details: HCT-116, 72 h
# SMMC-7721 [11] = assay: Antiproliferative activity against human SMMC7721 cells assessed as reduction in cell growth incubated for 72 hrs by CCK-8 assay; assay type: functional, cell-based; details: SMMC-7721, 72 h
# HCT-116 [12] = assay: Antiproliferative activity against human HCT116 cells assessed as reduction in cell growth incubated for 72 hrs by CCK-8 assay; assay type: functional, cell-based; details: HCT-116, 72 h
SMILES,inhibition at 8 µM (HCT-116 [1]) [%],inhibition at 2 µM (SMMC-7721 [2]) [%],inhibition at 8 µM (A549 [3]) [%],inhibition at 2 µM (HeLa [4]) [%],inhibition at 8 µM (A-375 [5]) [%],inhibition at 2 µM (A549 [6]) [%],inhibition at 8 µM (HeLa [7]) [%],inhibition at 8 µM (SMMC-7721 [8]) [%],inhibition at 2 µM (A-375 [9]) [%],inhibition at 2 µM (HCT-116 [10]) [%],IC50 (SMMC-7721 [11]) [µM],IC50 (HCT-116 [12]) [µM]
CCn1c(SCc2ccc(C(=O)Nc3ccccc3N)cc2)nc2cc(F)ccc2c1=O,64.3,0.8,56.5,25.7,10.3,54.4,31,20.4,8.4,5.3,–,–
CCn1c(SCc2ccc(C(=O)Nc3ccccc3N)cc2)nc2cc(Cl)ccc2c1=O,7.4,18.4,13.7,39.1,49.9,3.6,43.4,34.2,12.7,7.3,–,–
COc1ccc2c(=O)n(C)c(SCc3ccc(/C=C/C(=O)Nc4ccccc4N)cc3)nc2c1,12.2,3.6,56.6,20.7,10.4,54.3,30.2,15.4,2.5,9.4,–,–
COc1ccc2c(=O)n(-c3cccc(Cl)c3)c(SCc3ccc(/C=C/C(=O)Nc4ccccc4N)cc3)nc2c1,12.7,0.7,37.2,16.3,8.9,4.1,24.9,5.1,5.4,2.1,–,–
Cc1cccc2nc(SCc3ccc(/C=C/C(=O)Nc4ccccc4N)cc3)n(C)c(=O)c12,11.7,50.5,46,44.3,32.4,39.4,51.8,52.3,24.4,8.9,3.56,–
Cc1cccc2c(=O)n(C)c(SCc3ccc(/C=C/C(=O)Nc4ccccc4N)cc3)nc12,5.8,26.3,43.8,31.6,13.7,34,56.6,36.4,9.3,4.5,–,–
Nc1ccccc1NC(=O)c1ccc(CSc2nc3cc(Br)ccc3c(=O)n2-c2cccc(Cl)c2)cc1,31.3,10.5,36.4,55,32.9,35.6,67,21,17.4,11.3,–,–
Cc1cccc2nc(SCc3ccc(C(=O)Nc4ccccc4N)cc3)n(C)c(=O)c12,68.5,59.2,41.8,43.8,36.9,34.7,58.3,68.5,35.6,29.1,0.69,–
CCn1c(SCc2ccc(/C=C/C(=O)Nc3ccccc3N)cc2)nc2cc(Cl)ccc2c1=O,28.4,12.1,45.7,8.7,22.9,31.6,21.8,28.4,12,12.1,–,–
COc1ccc2c(=O)n(-c3cccc(Cl)c3)c(SCC(=O)Nc3ccccc3N)nc2c1,6.6,24.6,28.2,27.8,43.3,13,38.5,38.1,3.2,3.9,–,–
CCn1c(SCc2ccc(C(=O)Nc3ccccc3N)cc2)nc2cc(OC)ccc2c1=O,6.7,32.2,30.3,42.1,31.4,28,44,45.8,20,5,–,–
CCn1c(SCc2ccc(C(=O)Nc3cc(F)ccc3N)cc2)nc2cc(OC)ccc2c1=O,67.8,36,36.4,6.9,38.8,12.3,41.6,61.4,17.1,50.3,4.86,–
CCCCn1c(SCc2ccc(C(=O)Nc3ccccc3N)cc2)nc2cc(F)ccc2c1=O,78.2,9.1,46.5,30.9,43.1,41.1,30.9,41.6,18,22.8,–,3.63
CCn1c(SCc2ccc(C(=O)Nc3ccccc3N)cc2)nc2cc(Br)ccc2c1=O,68.5,22.9,45.4,30.4,40.7,20.4,41.3,36.8,19.8,24.8,–,4.33
CCn1c(SCC(=O)Nc2ccccc2N)nc2cc(Cl)ccc2c1=O,6.9,1.8,27.5,39.2,32.5,14.2,59.7,2.1,24.4,3.9,–,–
Cn1c(SCc2ccc(/C=C/C(=O)Nc3ccccc3N)cc2)nc2cc(Br)ccc2c1=O,19.4,13.2,14,17.7,6.3,1.9,30.3,15.2,4,9,–,–
CCCCn1c(SCc2ccc(C(=O)Nc3ccccc3N)cc2)nc2cc(Br)ccc2c1=O,51.9,18.2,39.7,21.3,37.7,28.1,34.7,26.4,8.5,14.1,–,–
Cc1ccc2nc(SCc3ccc(/C=C/C(=O)Nc4ccccc4N)cc3)n(C)c(=O)c2c1,18.6,34.1,38.7,25.5,22.8,26.7,55.3,57.6,9,7.2,–,–
CCCCn1c(SCc2ccc(/C=C/C(=O)Nc3ccccc3N)cc2)nc2cc(F)ccc2c1=O,33.2,10.2,13.5,11.6,15.8,4.6,26.2,29,1.9,12,–,–
Cc1ccc2c(=O)n(C)c(SCc3ccc(/C=C/C(=O)Nc4ccccc4N)cc3)nc2c1,32.2,20.2,41.4,22.1,36.1,20.3,27.7,63.6,29,2.3,6.45,–
COc1ccc2c(=O)n(-c3cccc(Cl)c3)c(SCc3ccc(C(=O)Nc4ccccc4N)cc3)nc2c1,64,21.3,30,12.3,36,20.9,51.2,27,21.7,22,–,5.8
Cn1c(SCc2ccc(/C=C/C(=O)Nc3ccccc3N)cc2)nc2cc(F)ccc2c1=O,3.3,12.3,22.9,12.7,6.4,2.9,21.2,29.5,1.6,0.9,–,–
